According to patent publication US10125100B2, “Kinase inhibitors” (Respivert Limited, priority 2014, dated 2018):

What was measured:
Jurkat cells = test: (r) Cell cytotoxicity assay; type: cell-based, human; conditions: 24 hours
How it was run: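 Jurkat cells (1×10^5/well, RPMI + 10% FBS) exposed to compound at 20, 5 or 1 μg/mL final (1.0% DMSO control) for 24 h at 37° C., 5% CO2. Then stained with 7.5 μg/mL propidium iodide for 15 min. % viability = PI-negative cells by flow cytometry, normalized to DMSO.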

p38 MAPKα (MAPK14) = p38 MAPKα (MAPK14) (Homo sapiens (Human), UniProt Q16539); test: p38 MAPKα enzyme inhibition (Method 2), Z-LYTE FRET; type: biochemical
p38 MAPKα (MAPK14), sequence (Q16539 whole entry): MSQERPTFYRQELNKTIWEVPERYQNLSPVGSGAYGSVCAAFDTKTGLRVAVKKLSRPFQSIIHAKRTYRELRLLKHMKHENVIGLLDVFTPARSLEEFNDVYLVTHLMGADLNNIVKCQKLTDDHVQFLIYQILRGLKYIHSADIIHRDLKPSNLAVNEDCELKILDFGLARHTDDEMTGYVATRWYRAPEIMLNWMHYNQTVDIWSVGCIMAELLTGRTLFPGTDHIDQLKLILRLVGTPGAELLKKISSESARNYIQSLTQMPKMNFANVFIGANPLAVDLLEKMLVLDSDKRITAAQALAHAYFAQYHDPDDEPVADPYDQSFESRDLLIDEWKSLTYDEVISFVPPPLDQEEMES
Experimental: (§1) The enzyme inhibitory activities of compounds disclosed herein are determined by FRET using synthetic peptides labelled with both donor and acceptor fluorophores (Z-LYTE, Invitrogen Ltd., Paisley, UK).
The following two assay variants can be used for determination of p38 MAPKα inhibition.
The inhibitory activities of test compounds against the p38 MAPKα isoform (MAPK14: Invitrogen) are evaluated indirectly by determining the level of activation/phosphorylation of the down-stream molecule, MAPKAP-K2. The p38 MAPKα protein (80 ng/mL, 2.5 μL) is mixed with the test compound (2.5 μL of either 4 μg/mL, 0.4 μg/mL, 0.04 μg/mL or 0.004 μg/mL) for 2 hr at RT. […] The mixture is incubated for 1 hr at RT. Development reagent (protease, 5 μL) is added for 1 hr prior to detection in a fluorescence microplate reader (Varioskan® Flash, ThermoFisher Scientific).
This method follows the same steps as Method 1 above, but utilises a higher concentration of the p38 MAPKα protein (2.5 μL of 200 ng/mL protein instead of 2.5 μL of 80 ng/mL protein) for mixing with the test compound (tested at either 1 μg/mL, 0.1 μg/mL, 0.01 μg/mL or 0.001 μg/mL).
(§2) In all cases, the site-specific protease cleaves non-phosphorylated peptide only and eliminates the FRET signal. Phosphorylation levels of each reaction are calculated using the ratio of coumarin emission (donor) over fluorescein emission (acceptor), for which high ratios indicate high phosphorylation and low ratios indicate low phosphorylation levels.

Syk = Syk (Homo sapiens (Human), UniProt P43405); test: Syk enzyme inhibition, Z-LYTE FRET; type: biochemical
Experimental: as §1
(§3) The relevant enzyme (3000 ng/mL or 2000 ng/mL respectively, 2.5 μL) is incubated with the test compound (either 1 μg/mL, 0.1 μg/mL, 0.01 μg/mL, or 0.001 μg/mL, 2.5 μL each) for 2 hr at RT. The FRET peptides (8 μM, 2.5 μL), and appropriate ATP solutions (2.5 μL, 800 μM for c-Src, and 60 μM ATP for Syk) are then added to the enzymes/compound mixtures and the mixture incubated for 1 hr. Development reagent (protease, 5 μL) is added for 1 hr prior to detection in a fluorescence microplate reader (Varioskan® Flash, ThermoFisher Scientific).
as §2

c-Src = c-Src (Homo sapiens (Human), UniProt P12931); test: c-Src enzyme inhibition, Z-LYTE FRET; type: biochemical
c-Src, sequence (P12931 whole entry, looked up): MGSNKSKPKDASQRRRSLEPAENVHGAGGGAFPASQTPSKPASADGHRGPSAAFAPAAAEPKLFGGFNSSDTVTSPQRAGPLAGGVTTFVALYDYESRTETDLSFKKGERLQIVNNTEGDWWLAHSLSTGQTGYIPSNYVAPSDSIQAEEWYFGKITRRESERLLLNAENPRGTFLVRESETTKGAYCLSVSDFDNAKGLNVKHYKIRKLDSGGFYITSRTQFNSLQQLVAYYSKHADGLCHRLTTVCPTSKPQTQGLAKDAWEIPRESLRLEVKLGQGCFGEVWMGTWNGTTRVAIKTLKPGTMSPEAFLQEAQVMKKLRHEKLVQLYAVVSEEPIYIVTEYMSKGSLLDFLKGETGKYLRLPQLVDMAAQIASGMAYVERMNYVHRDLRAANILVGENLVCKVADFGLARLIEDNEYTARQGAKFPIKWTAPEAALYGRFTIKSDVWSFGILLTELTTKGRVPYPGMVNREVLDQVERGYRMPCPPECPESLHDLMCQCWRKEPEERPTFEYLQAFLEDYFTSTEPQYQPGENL
Experimental: as §1
as §3, with “The inhibitory activities of compounds of the invention against c-Src and Syk enzymes (Invitrogen), are evaluated in a similar fashion to that described hereinabove. The relevant” for “The relevant”
as §2

mitosis in PBMCs = test: (g) Cell mitosis assay; type: cell-based; conditions: Homo sapiens, PBMC, 5 μg/mL
Experimental: Peripheral blood mononucleocytes (PBMCs) from healthy subjects are separated from whole blood (Quintiles, London, UK) using a density gradient (Histopaque®-1077, Sigma-Aldrich, Poole, UK). The PBMCs (3 million cells per sample) are subsequently treated with 2% PHA (phytohaemagglutinin, Sigma-Aldrich, Poole, UK) for 48 hr, followed by a 20 hr exposure to varying concentrations of test compounds. At 2 hr before collection, PBMCs are treated with demecolcine (0.1 μg/mL; Invitrogen, Paisley, UK) to arrest cells in metaphase. To observe mitotic cells, PBMCs are permeabilized and fixed by adding Intraprep (50 μL; Beckman Coulter, France), and stained with anti-phospho-histone 3 ([…]; #9701; Cell Signalling, Danvers, Mass.) and propidium iodide (1 mg/mL; Sigma-Aldrich, Poole, UK) as previously described (Muehlbauer P. A. and Schuler M. J., Mutation Research, 2003, 537:117-130). Fluorescence is observed using an ATTUNE flow cytometer (Invitrogen, Paisley, UK), gating for lymphocytes.

IC50 (p38 MAPKα (MAPK14)) [nM] | IC50 (Syk) [nM] | IC50 (c-Src) [nM] | SMILES | % Viability at 1 μg/mL (Jurkat cells; 1 μg/mL) [%] | % Viability at 5 μg/mL (Jurkat cells; 5 μg/mL) [%] | % Viability at 20 μg/mL (Jurkat cells; 20 μg/mL) [%] | inhibition at 5 µg/mL (mitosis in PBMCs) [%]
20 | 172 | 21 | COc1cc(Nc2cc(Oc3ccc(NC(=O)Nc4cc(C(C)(C)C)cc(NS(C)(=O)=O)c4OC)c4ccccc34)ccn2)ccc1C(=O)NCCN1CCCCC1 [17(p), 4-[[4-[[4-[[5-tert-butyl-3-(methanesulfonamido)-2-methoxy-phenyl]carbamoylamino]-1-naphthyl]oxy]-2-pyridyl]amino]-2-methoxy-N-[2-(1-piperidyl)ethyl]benzamide] | 102.1 | 49.9 | 1.5 | 92
156 | 336 | 74 | COc1cc(Nc2cc(Oc3ccc(NC(=O)Nc4cc(C(C)(C)C)cc(NS(C)(=O)=O)c4OC)c4ccccc34)ccn2)ccc1C(=O)NCCN1CCOCC1(C)C [17(k), 4-[[4-[[4-[[5-tert-butyl-3-(methanesulfonamido)-2-methoxy-phenyl]carbamoylamino]-1-naphthyl]oxy]-2-pyridyl]amino]-N-[2-(3,3-dimethylmorpholin-4-yl)ethyl]-2-methoxy-benzamide] |  |  |  | 24
25 | 192 | 19 | COc1cc(Nc2cc(Oc3ccc(NC(=O)Nc4cc(C(C)(C)C)cc(NS(C)(=O)=O)c4OC)c4ccccc34)ccn2)ccc1C(=O)NCCN1CCC(O)CC1 [17(m), 4-[[4-[[4-[[5-tert-butyl-3-(methanesulfonamido)-2-methoxy-phenyl]carbamoylamino]-1-naphthyl]oxy]-2-pyridyl]amino]-N-[2-(4-hydroxy-1-piperidyl)ethyl]-2-methoxy-benzamide] |  |  |  | 80.5
35 | 318 | 76 | COCCOCCOCC[S+]([O-])c1ccc(Nc2cc(Oc3ccc(NC(=O)Nc4cc(C(C)(C)C)cc(NS(C)(=O)=O)c4OC)c4ccccc34)ccn2)cc1OC (stereo not shown) [Example 11, N-(5-(tert-Butyl)-2-methoxy-3-(3-(4-((2-((3-methoxy-4-((2-(2-(2-methoxyethoxy)ethoxy)ethyl)sulfinyl)phenyl)amino)pyridin-4-yl)oxy)naphthalen-1-yl)ureido)phenyl)methanesulfonamide] |  |  |  | 26.6
121 | 277 | 37 | COc1cc(Nc2cc(Oc3ccc(NC(=O)Nc4cc(C(C)(C)C)cc(C(N)=O)c4OC)c4ccccc34)ccn2)ccc1C(=O)NCCN1CCOCC1 [Example 4, 4-((4-((4-(3-(5-(tert-Butyl)-3-carbamoyl-2-methoxyphenyl)ureido)naphthalen-1-yl)oxy)pyridin-2-yl)amino)-2-methoxy-N-(2-morpholinoethyl)benzamide] |  |  |  | 46.2
59 | 107 | 21 | COc1cc(Nc2cc(Oc3ccc(NC(=O)Nc4cc(C(C)(C)C)cc(NS(C)(=O)=O)c4OC)c4ccccc34)ccn2)ccc1C(=O)NCCN1CC[S+]([O-])CC1 [Example 7, 4-((4-((4-(3-(5-(tert-Butyl)-2-methoxy-3-(methylsulfonamido)phenyl)ureido)naphthalen-1-yl)oxy)pyridin-2-yl)amino)-2-methoxy-N-(2-(1-oxidothiomorpholino)ethyl)benzamide] |  |  |  | 59.9
116 | 232 | 43 | COc1cc(Nc2cc(Oc3ccc(NC(=O)Nc4cc(C(C)(C)C)cc(NS(C)(=O)=O)c4OC)c4ccccc34)ccn2)ccc1C(=O)N[C@@H](C)CN1CCOCC1 [17(v), 4-[[4-[[4-[[5-tert-butyl-3-(methanesulfonamido)-2-methoxy-phenyl]carbamoylamino]-1-naphthyl]oxy]-2-pyridyl]amino]-2-methoxy-N-[(1S)-1-methyl-2-morpholino-ethyl]benzamide] |  |  |  | 34.4
197 | > 1280 | 316 | COc1c(NC(=O)Nc2ccc(Oc3ccnc(Nc4ccc(OCCN5CCOCC5)c(C#N)c4)c3)c3ccccc23)cc(C(C)(C)C)cc1NS(C)(=O)=O [Example 9, N-(5-(tert-Butyl)-3-(3-(4-((2-((3-cyano-4-(2-morpholinoethoxy)phenyl)amino)pyridin-4-yl)oxy)naphthalen-1-yl)ureido)-2-methoxyphenyl)methanesulfonamide] |  |  |  | 29.8
137 | 315 | 36 | COCCOCCOCCNC(=O)c1ccc(Nc2cc(Oc3ccc(NC(=O)Nc4cc(C(C)(C)C)cc(C(N)=O)c4OC)c4ccccc34)ccn2)cc1OC [Example 6, 4-((4-((4-(3-(5-(tert-Butyl)-3-carbamoyl-2-methoxyphenyl)ureido)naphthalen-1-yl)oxy)pyridin-2-yl)amino)-2-methoxy-N-(2-(2-(2-methoxyethoxy)ethoxy)ethyl)benzamide] |  |  |  | 28.8
21 | 39 | 16 | COc1cc(Nc2cc(Oc3ccc(NC(=O)Nc4cc(C(C)(C)C)cc(NS(C)(=O)=O)c4OC)c4ccccc34)ccn2)ccc1C(=O)NC1CCN(C)CC1 [17(j), 4-[[4-[[4-[[5-tert-butyl-3-(methanesulfonamido)-2-methoxy-phenyl]carbamoylamino]-1-naphthyl]oxy]-2-pyridyl]amino]-2-methoxy-N-(1-methyl-4-piperidyl)benzamide] |  |  |  | 85.4
20 | 61 | 24 | COc1cc(Nc2cc(Oc3ccc(NC(=O)Nc4cc(C(C)(C)C)cc(NS(C)(=O)=O)c4OC)c4ccccc34)ccn2)ccc1C(=O)NCCCN1CCN(C)CC1 [17(aa), 4-[[4-[[4-[[5-tert-butyl-3-(methanesulfonamido)-2-methoxy-phenyl]carbamoylamino]-1-naphthyl]oxy]-2-pyridyl]amino]-2-methoxy-N-[3-(4-methylpiperazin-1-yl)propyl]benzamide] |  |  |  | 77.7
119 | 102 | 37 | COc1cc(Nc2cc(Oc3ccc(NC(=O)Nc4cc(C(C)(C)C)cc(NS(C)(=O)=O)c4OC)c4ccccc34)ccn2)ccc1C(=O)NCCN1CCS(=O)(=O)CC1 [17(r), 4-[[4-[[4-[[5-tert-butyl-3-(methanesulfonamido)-2-methoxy-phenyl]carbamoylamino]-1-naphthyl]oxy]-2-pyridyl]amino]-N-[2-(1,1-dioxo-1,4-thiazinan-4-yl)ethyl]-2-methoxy-benzamide] |  |  |  | 36.6
119 | 187 | 31 | COCCOCCOCCNC(=O)c1ccc(Nc2cc(Oc3ccc(NC(=O)Nc4cc(C(C)(C)C)cc(NS(C)(=O)=O)c4OC)c4ccccc34)ccn2)cc1OC [Example 5, 4-((4-((4-(3-(5-(tert-Butyl)-2-methoxy-3-(methylsulfonamido)phenyl)ureido)naphthalen-1-yl)oxy)pyridin-2-yl)amino)-2-methoxy-N-(2-(2-(2-methoxyethoxy)ethoxy)ethyl)benzamide] |  |  |  | 27.7
